The target in test [1] is T1, PtHmfF (P. thermopropionicum HmfF) (Pelotomaculum thermopropionicum, UniProt A5D4Z9).
T1 construct: gene UbiD; codon-optimised, full length; pET30a C-terminal His-tag from E. coli BL21(DE3), coexpressed with E. coli UbiX; untagged (pET21b) for crystals; hexamer (D3); The eightfold dimer variant is in pET28a (His-tag)
Nature of the test: X-ray crystal structure, […] Å, FMN soak. The format is binding. As to conditions: K+ and Mn2+ present; stable analogue in prFMN site; untagged enzyme.

Test [2] has as its target T2, PtHmfF (P. thermopropionicum HmfF) (Pelotomaculum thermopropionicum, UniProt A5D4Z9, A315N/N348R/F351D/T355N/A388P/F393T/V395F/M399R).
T2 construct: gene UbiD; codon-optimised, full length; pET30a C-terminal His-tag from E. coli BL21(DE3), coexpressed with E. coli UbiX; untagged (pET21b) for crystals; hexamer (D3); The eightfold dimer variant is in pET28a (His-tag)
As to the kind of experiment: X-ray crystal structure, […] Å. The format is binding. As to conditions: dimer variant; cofactor copurified from UbiX coexpression.

The target in test [3] is T1, PtHmfF (P. thermopropionicum HmfF). Nature of the test: in vitro reconstitution of apo-enzyme; UV-vis spectra and activity. The format is biochemical. As to conditions: reduced prFMN added anaerobically, then oxidative maturation in air; FDCA 900 μM, 25 °C.
For test [4], the target named is Pelotomaculum thermopropionicum 2,5-furandicarboxylic acid decarboxylase (HmfF), wild type, untagged (Pelotomaculum thermopropionicum). Nature of the test: crystal structure; untagged PtHmfF, space group P21, crystals soaked with FMN in the presence of K+ and Mn2+, data to 2.7 Å, six monomers in the asymmetric unit; solved by Se-Met SAD.
Test [5] has as its target Pelotomaculum thermopropionicum HmfF dimer variant (A315N, N348R, F351D, T355N, A388P, F393T, V395F, M399R) (Pelotomaculum thermopropionicum). Nature of the test: crystal structure; PtHmfF dimer variant with prFMN, crystals grown at 4 °C, 2.3 Å, molecular replacement with the WT monomer; two monomers in the asymmetric unit.
The target is the same in test [6]. As to the kind of experiment: SEC-MALS; 25 °C; 500 μL of 1.5 mg/mL protein on Superdex 200 10/300GL; 200 mM KCl, 1 mM MnCl2, 50 mM Tris pH 7.5; 0.75 mL/min.

Broadly, the stoichiometry N is the number of molecules, sites or subunits per partner or assembly.

As to `Cc1cc2nc3c(=O)[nH]c(=O)nc-3n(C[C@H](O)[C@H](O)[C@H](O)COP(=O)(O)O)c2cc1C` [FMN], the “X-ray crystal structure, 2.7 Å, FMN soak” value in test [1] is “revealing clear electron density for both the FMN and the associated metal ions”.
For the compound `Cc1cc2c3c(c1C)C(C)(C)CC=[N+]3c1c([nH]c(=O)[nH]c1=O)N2C[C@H](O)[C@H](O)[C@H](O)COP(=O)(O)O` [prFMN], the “X-ray crystal structure, 2.3 Å” value in test [2] is reported as “the dimer variant crystals contain prFMN in the active site”. For the same compound, the “in vitro reconstitution of apo-enzyme; UV-vis spectra and activity” value in test [3] was “HmfF requires oxidative maturation of prFMN for activity”.
Turning to “Pelotomaculum thermopropionicum 2,5-furandicarboxylic acid decarboxylase (HmfF), wild type, untagged (enzyme)”, the stoichiometry N in test [4] turned out to be 6.
Turning to “Pelotomaculum thermopropionicum HmfF dimer variant (A315N, N348R, F351D, T355N, A388P, F393T, V395F, M399R) (enzyme)”, the stoichiometry N in test [5] and in test [6] was 2 in each case.

(Values after paper PMC6497424 (ACS Catalysis, 2019).)
